Results from ChEMBL document CHEMBL5518159, “Thiazole-based analogues as potential antibacterial agents against methicillin-resistant Staphylococcus aureus (MRSA) and their SAR elucidation” (Eur J Med Chem, 2023).
pIC50: −log10 of the molar value. Converted amounts (≈) assume the structure as drawn.

Tests used:
Staphylococcus aureus [1] = assay: Antibacterial activity against […] Staphylococcus aureus ATCC 6538 assessed as reduction in bacterial growth incubated for 18 hrs by CLSI based broth-dilution method; assay type: functional
DNA gyrase [2] = biological target: DNA gyrase (Escherichia coli, UniProt P0AES4+P0AES6); assay: Inhibition of Escherichia coli DNA gyrase assessed as reduction in enzyme-mediated supercoiling of relaxed plasmid by fluorescence polarization assay; assay type: protein-complex assay
DNA gyrase [3] = biological target: DNA gyrase (Staphylococcus aureus, UniProt P0A0K8+P20831); assay: Inhibition of Staphylococcus aureus DNA gyrase; assay type: protein-complex assay
Staphylococcus aureus [4] = assay: Antibacterial activity against […] Staphylococcus aureus ATCC 25923 assessed as reduction in bacterial growth incubated for 24 hrs by micro-broth dilution method; assay type: functional
Staphylococcus aureus [5] = assay: Antibacterial activity against […] Staphylococcus aureus ATCC 6538 assessed as microbial growth inhibition incubated for 24 hrs by broth micro-dilution analysis; assay type: functional
Staphylococcus aureus [6] = assay: Antibacterial activity against methicillin-resistant Staphylococcus aureus assessed as reduction in microbial growth measured for 24 hrs by CLSI based broth microdilution method; assay type: functional
Staphylococcus aureus [7] = assay: Antibacterial activity against Staphylococcus aureus assessed as reduction in bacterial growth by CLSI based two-fold microdilution method; assay type: functional

Sequence of DNA gyrase (Staphylococcus aureus, UniProt P0A0K8+P20831) (P0A0K8 whole entry): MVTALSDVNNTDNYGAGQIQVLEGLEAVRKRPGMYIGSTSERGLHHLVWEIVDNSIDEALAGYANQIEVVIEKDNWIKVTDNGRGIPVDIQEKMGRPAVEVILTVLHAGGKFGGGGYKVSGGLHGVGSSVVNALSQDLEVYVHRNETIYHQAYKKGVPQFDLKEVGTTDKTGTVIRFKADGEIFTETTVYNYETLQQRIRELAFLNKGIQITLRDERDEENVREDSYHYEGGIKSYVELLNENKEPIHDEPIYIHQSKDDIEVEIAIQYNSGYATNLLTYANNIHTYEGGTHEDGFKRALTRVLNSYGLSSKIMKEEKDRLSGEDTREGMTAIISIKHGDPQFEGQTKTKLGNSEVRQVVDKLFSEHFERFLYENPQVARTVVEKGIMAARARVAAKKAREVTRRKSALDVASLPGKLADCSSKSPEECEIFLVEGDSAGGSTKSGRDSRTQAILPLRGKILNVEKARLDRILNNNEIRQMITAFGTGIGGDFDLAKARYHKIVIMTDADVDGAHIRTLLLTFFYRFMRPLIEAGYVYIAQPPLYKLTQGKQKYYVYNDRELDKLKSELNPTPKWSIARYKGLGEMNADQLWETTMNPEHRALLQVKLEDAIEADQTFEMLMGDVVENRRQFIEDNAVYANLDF
Sequence of DNA gyrase (Staphylococcus aureus, UniProt P0A0K8+P20831) (P20831 whole entry): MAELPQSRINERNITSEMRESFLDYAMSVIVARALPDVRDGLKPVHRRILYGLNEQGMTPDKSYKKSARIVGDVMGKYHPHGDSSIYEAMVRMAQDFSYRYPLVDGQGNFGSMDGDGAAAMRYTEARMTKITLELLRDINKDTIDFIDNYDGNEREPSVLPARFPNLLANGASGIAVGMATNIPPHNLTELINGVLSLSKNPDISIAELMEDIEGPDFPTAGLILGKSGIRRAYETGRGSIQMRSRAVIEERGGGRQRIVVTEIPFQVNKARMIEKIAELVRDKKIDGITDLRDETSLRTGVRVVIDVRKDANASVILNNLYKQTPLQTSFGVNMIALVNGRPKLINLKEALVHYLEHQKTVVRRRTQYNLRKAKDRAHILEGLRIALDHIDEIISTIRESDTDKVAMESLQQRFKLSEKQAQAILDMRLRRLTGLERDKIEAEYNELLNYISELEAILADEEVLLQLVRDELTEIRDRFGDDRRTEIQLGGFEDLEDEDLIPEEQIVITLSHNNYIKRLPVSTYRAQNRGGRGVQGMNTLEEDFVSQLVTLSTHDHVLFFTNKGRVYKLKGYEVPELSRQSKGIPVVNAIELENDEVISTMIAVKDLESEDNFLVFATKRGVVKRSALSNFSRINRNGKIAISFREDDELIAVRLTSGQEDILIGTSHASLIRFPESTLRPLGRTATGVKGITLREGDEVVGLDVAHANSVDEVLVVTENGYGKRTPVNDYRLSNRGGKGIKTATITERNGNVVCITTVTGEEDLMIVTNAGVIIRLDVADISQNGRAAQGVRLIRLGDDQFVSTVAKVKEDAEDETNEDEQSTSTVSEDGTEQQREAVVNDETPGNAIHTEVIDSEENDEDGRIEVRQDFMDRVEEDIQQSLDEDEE

O=C(O)c1cccc(N2C(=O)/C(=C/c3c[nH]c4ccccc34)SC2=S)c1
MIC (Staphylococcus aureus [1]): 12 µg/mL (≈ 31.5 µM)

COC(=O)CC(=O)Nc1nc2c(s1)C[C@@H](NC(=O)c1[nH]c(C)c(Br)c1Cl)CC2
pIC50 (DNA gyrase [2]): 7.25 | pIC50 (DNA gyrase [3]): 5.43 | MIC (Staphylococcus aureus [4]): 8 µg/mL (≈ 16.3 µM)

CCCC(C(=O)O)N1C(=O)/C(=C/c2c[nH]c3ccccc23)SC1=S (configuration not stated)
MIC (Staphylococcus aureus [5]): 250 µg/mL (≈ 694 µM)

NC(=S)N/N=C/C1=CC(c2ccc([N+](=O)[O-])cc2[N+](=O)[O-])C=C1c1ccc(Cl)cc1Cl (configuration not stated)
MBC (Staphylococcus aureus [6]): 38 µg/mL

C=C(C)[C@@H]1CC=C2c3sc(-c4cc(O)cc(O)c4)nc3C[C@@H](C)[C@]2(C)C1
MIC (Staphylococcus aureus [7]): 3.12 µg/mL (≈ 8.49 µM)
